Assay results taken from ChEMBL document CHEMBL6134890, “Terminally Symmetric β-Turn Peptides for Multidrug-Resistant Bacterial Infections” (J Med Chem, 2025).
≈ marks a conversion by molar mass, not a printed value. Calls of active or inactive are those of the source. The calls are words filed in the database; no cut-off is given here. Peptide text beside a SMILES is read from it.

What was measured:
[1] = system: Staphylococcus aureus; assay: Antimicrobial activity against Staphylococcus aureus ATCC 25923 assessed as reduction in bacterial growth by broth dilution method; assay type: functional
[2] = system: Staphylococcus aureus; assay: Antimicrobial activity against multi-drug resistant Staphylococcus aureus assessed as reduction in bacterial growth by broth dilution method; assay type: functional
[3] = system: Staphylococcus epidermidis; assay: Antimicrobial activity against multi-drug resistant Staphylococcus epidermidis assessed as reduction in bacterial growth by broth dilution method; assay type: functional
[4] = system: Enterococcus faecalis; assay: Antimicrobial activity against multi-drug resistant Enterococcus faecalis assessed as reduction in bacterial growth by broth dilution method; assay type: functional
[5] = system: Escherichia coli; assay: Antimicrobial activity against Escherichia coli ATCC 25922 assessed as reduction in bacterial growth by broth dilution method; assay type: functional
[6] = system: Escherichia coli; assay: Antimicrobial activity against multi-drug resistant Escherichia coli assessed as reduction in bacterial growth by broth dilution method; assay type: functional
[7] = system: Klebsiella pneumoniae; assay: Antimicrobial activity against multi-drug resistant Klebsiella pneumoniae assessed as reduction in bacterial growth by broth dilution method; assay type: functional
[8] = system: Acinetobacter baumannii; assay: Antimicrobial activity against multi-drug resistant Acinetobacter baumannii assessed as reduction in bacterial growth by broth dilution method; assay type: functional
[9] = Hemolytic activity in human Red blood cell assessed as hemolysis incubated for 1 hrs by microplate reader based analysis; assay type: toxicity; settings: erythrocyte
[10] = system: Escherichia coli; assay: Antimicrobial activity against multi-drug resistant Escherichia coli assessed as fold increase in MIC in presence of NaCl; assay type: functional
[11] = system: Escherichia coli; assay: Antimicrobial activity against multi-drug resistant Escherichia coli assessed as fold increase in MIC in presence of KCl; assay type: functional
[12] = system: Escherichia coli; assay: Antimicrobial activity against multi-drug resistant Escherichia coli assessed as fold increase in MIC in presence of FeCl3; assay type: functional
[13] = system: Staphylococcus aureus; assay: Antimicrobial activity against multi-drug resistant Staphylococcus aureus assessed as reduction in bacterial growth measured after 1 to 6 hrs in 25% plasma; assay type: functional, organism-based; settings: time 1-6 hrs
[14] = Half life of the compound in 25% plasma; assay type: ADME, cell-free
[15] = system: Escherichia coli; assay: Antimicrobial activity against multi-drug resistant Escherichia coli assessed as reduction in bacterial growth at 2 times MIC measured after 1 hrs in presence of trypsin by microplate reader based analysis; assay type: functional, organism-based
[16] = system: Escherichia coli; assay: Antimicrobial activity against multi-drug resistant Escherichia coli assessed as reduction in bacterial growth at 2 times MIC measured after 1 hrs in presence of chymotrypsin by microplate reader based analysis; assay type: functional, organism-based
[17] = system: Staphylococcus aureus; assay: Antimicrobial activity against multi-drug resistant Staphylococcus aureus assessed as reduction in bacterial growth at 2 times MIC measured after 1 hrs in presence of trypsin by microplate reader based analysis; assay type: functional, organism-based
[18] = system: Staphylococcus aureus; assay: Antimicrobial activity against multi-drug resistant Staphylococcus aureus assessed as reduction in bacterial growth at 2 times MIC measured after 1 hrs in presence of chymotrypsin by microplate reader based analysis; assay type: functional, organism-based
[19] = system: Staphylococcus aureus; assay: Antibacterial activity against Staphylococcus aureus ATCC 25923 at sub-inhibitory concentration measured after 15 passages for 18 hrs; assay type: functional; parameters: scale not given: the % may be the effect or the level left
[20] = system: Staphylococcus aureus; assay: Bactericidal activity against multi-drug resistant Staphylococcus aureus assessed as eradication of bacterial growth at 2 times MIC by time-kill kinetic assay; assay type: functional, organism-based; settings: time 120-720 min
[21] = system: Escherichia coli; assay: Bactericidal activity against multi-drug resistant Escherichia coli assessed as eradication of bacterial growth at 2 times MIC by time-kill kinetic assay; assay type: functional, organism-based; settings: time 120-720 min
[22] = system: Staphylococcus aureus; assay: Bactericidal activity against multi-drug resistant Staphylococcus aureus assessed as eradication of bacterial growth at 2 times MIC measured after 6 hrs by time-kill kinetic assay relative to control; assay type: functional
[23] = system: Escherichia coli; assay: Bactericidal activity against multi-drug resistant Escherichia coli assessed as eradication of bacterial growth at 2 times MIC measured after 6 hrs by time-kill kinetic assay relative to control; assay type: functional
[24] = system: Cell membrane; assay: Disruption of cell membrane in multi-drug resistant Staphylococcus aureus assessed as appearance of wrinkled cell surface at 2 times MIC measured for 120 mins by transmission electron microscopy analysis; assay type: subcellular
[25] = system: Cell membrane; assay: Disruption of cell membrane in multi-drug resistant Staphylococcus aureus assessed as appearance of ruptured cell surface at 2 times MIC measured for 120 mins by transmission electron microscopy analysis; assay type: subcellular
[26] = system: Cell membrane; assay: Disruption of cell membrane in multi-drug resistant Escherichia coli assessed as appearance of wrinkled cell surface at 2 times MIC measured for 120 mins by transmission electron microscopy analysis; assay type: subcellular
[27] = system: Cell membrane; assay: Disruption of cell membrane in multi-drug resistant Escherichia coli assessed as appearance of ruptured cell surface at 2 times MIC measured for 120 mins by transmission electron microscopy analysis; assay type: subcellular
[28] = system: Cell membrane; assay: Disruption of cell membrane in multi-drug resistant Staphylococcus aureus assessed as increase in red fluorescence intensity of PI at 2 times MIC measured for 2 hrs by fluorescence confocal microscopic imaging based analysis; assay type: subcellular
[29] = system: Cell membrane; assay: Disruption of cell membrane in multi-drug resistant Escherichia coli assessed as increase in red fluorescence intensity of PI at 2 times MIC measured for 2 hrs by fluorescence confocal microscopic imaging based analysis; assay type: subcellular
[30] = system: Escherichia coli; assay: Bactericidal activity against multi-drug resistant Escherichia coli at 1 times MIC preincubated with LPS for 1 hrs followed by bacterial addition and measured after 18 hrs by microplate reader based analysis; assay type: functional, organism-based; settings: time 19.0 hrs
[31] = system: Cell membrane; assay: Induction of outer membrane permeabilization in multi-drug resistant Escherichia coli assessed as NPN uptake at 1 to 4 times MIC measured within 1 min by fluorescence based analysis; assay type: subcellular
[32] = system: Cell membrane; assay: Induction of cytoplasmic membrane depolarization in multi-drug resistant Escherichia coli at 1 to 4 times MIC measured within 1 min by DiSC3-5 fluorescent dye based analysis
[33] = system: Cell membrane; assay: Induction of cytoplasmic membrane depolarization in multi-drug resistant Staphylococcus aureus at 1 to 4 times MIC measured within 1 min by DiSC3-5 fluorescent dye based analysis
[34] = system: Staphylococcus aureus; assay: Antibiofilm activity against multi-drug resistant Staphylococcus aureus measured after 24 hrs by crystal violet staining based analysis; assay type: functional, organism-based
[35] = system: Escherichia coli; assay: Antibiofilm activity against multi-drug resistant Escherichia coli measured after 24 hrs by crystal violet staining based analysis; assay type: functional, organism-based
[36] = system: Escherichia coli; assay: Antibiofilm activity against multi-drug resistant Escherichia coli at 0.5 times MIC measured after 24 hrs by crystal violet staining based analysis; assay type: functional, organism-based
[37] = system: Staphylococcus aureus; assay: Antibiofilm activity in methicillin-resistant Staphylococcus aureus assessed as eradication of formed biofilm by measuring reduction in viable bacterial count measured after 12 hrs by confocal microscopy based analysis; assay type: functional, organism-based
[38] = system: Escherichia coli; assay: Antibiofilm activity in […] assessed as eradication of formed biofilm by measuring reduction in viable bacterial count measured after 12 hrs by confocal microscopy based analysis; assay type: functional, organism-based
[39] = system: Staphylococcus aureus; assay: Antibiofilm activity in methicillin-resistant Staphylococcus aureus assessed as eradication of formed biofilm at 1 to 4 times MIC measured after 12 hrs by confocal microscopy based analysis; assay type: functional, organism-based
[40] = system: Escherichia coli; assay: Antibiofilm activity in […] assessed as eradication of formed biofilm at 1 to 4 times MIC measured after 12 hrs by confocal microscopy based analysis; assay type: functional, organism-based
[41] = system: BEAS-2B; assay: Cytotoxicity against human BEAS-2B cells at 2 to 256 uM measured after 24 hrs by CCK-8 method; assay type: toxicity, cell-based; settings: dose 2-256 µM
[42] = system: HEK-293T; assay: Cytotoxicity against HEK293T cells at 2 to 256 uM measured after 24 hrs by CCK-8 method; assay type: toxicity, cell-based; settings: human, dose 2-256 µM
[43] = system: L02; assay: Cytotoxicity against human LO2 cells at 2 to 256 uM measured after 24 hrs by CCK-8 method; assay type: toxicity, cell-based; settings: l02, 24 h, dose 2-256 µM
[44] = system: Staphylococcus aureus; assay: Antimicrobial activity against multi-drug resistant Staphylococcus aureus assessed as fold increase in MIC in presence of NaCl; assay type: functional
[45] = system: Staphylococcus aureus; assay: Antimicrobial activity against multi-drug resistant Staphylococcus aureus assessed as fold increase in MIC in presence of MgCl2; assay type: functional
[46] = system: Escherichia coli; assay: Antimicrobial activity against multi-drug resistant Escherichia coli assessed as fold increase in MIC in presence of MgCl2; assay type: functional
[47] = system: Staphylococcus aureus; assay: Antimicrobial activity against multi-drug resistant Staphylococcus aureus assessed as fold increase in MIC measured after 6 hrs in 25% plasma; assay type: functional
[48] = system: Escherichia coli; assay: Antimicrobial activity against multi-drug resistant Escherichia coli assessed as fold increase in MIC measured after 6 hrs in 25% plasma; assay type: functional

`CC(C)C[C@H](NC(=O)[C@H](Cc1ccccc1)NC(=O)[C@@H]1CCCN1C(=O)[C@H](Cc1c[nH]c2ccccc12)NC(=O)[C@H](Cc1c[nH]c2ccccc12)NC(=O)[C@H](Cc1c[nH]c2ccccc12)NC(=O)[C@@H]1CCCN1C(=O)[C@H](Cc1ccccc1)NC(=O)[C@H](CCCNC(=N)N)NC(=O)[C@H](CCCNC(=N)N)NC(=O)[C@@H](N)C(C)C)C(=O)N[C@@H](CCCNC(=N)N)C(=O)N[C@@H](CCCNC(=N)N)C(=O)O` gave an MIC [1] of 8 µM (≈ 15.2 µg/mL), an MIC [2] of 16 µM (≈ 30.4 µg/mL) and an MIC [3] of 4 µM (≈ 7.61 µg/mL). The MIC [4] was 4 µM (≈ 7.61 µg/mL), the MIC [5] was 16 µM (≈ 30.4 µg/mL) and the MIC [6] was 16 µM (≈ 30.4 µg/mL). It also gave an MIC [7] of 256 µM (≈ 487 µg/mL), an MIC [8] of 32 µM (≈ 60.9 µg/mL) and an HC10 [9] of 33.13 µM. The “fold change (FC)” value [10] was 2, the “fold change (FC)” value [11] was 2 and the “fold change (FC)” value [12] was 2. The Activity [13] was “inactive”, the half-life [14] was 1.7 h and the Activity [15] was “inactive”. The Activity [16] was “inactive”, the Activity [17] was “inactive” and the Activity [18] was “inactive”. For the same compound, the Activity [19] was 100%, the Activity [20] was “Time-dependent-effect” and the Activity [21] was “Time-dependent-effect”. The Activity [22] was 100%, the Activity [23] was 100% and the Activity [24] was “Active”. For the same compound, the Activity [25] was “Active”, the Activity [26] was “Active” and the Activity [27] was “Active”. The Activity [28] was “Active”, the Activity [29] was “Active” and the Activity [30] was “inactive”. For the same compound, the Activity [31] was “Active”, the Activity [32] was “Active” and the Activity [33] was “Active”. The Activity [34] was “Dose-dependent-effect”, the Activity [35] was “Dose-dependent-effect” and the Activity [36] was “inactive”. The Activity [37] was “Dose-dependent-effect”, the Activity [38] was “Dose-dependent-effect” and the Activity [39] was “Active”. The Activity [40] was “Active”.
For `CC(C)C[C@H](NC(=O)[C@H](CCCCN)NC(=O)[C@H](CC(C)C)NC(=O)[C@H](CCCCN)NC(=O)[C@@H]1CCCN1C(=O)[C@H](Cc1c[nH]c2ccccc12)NC(=O)[C@H](Cc1c[nH]c2ccccc12)NC(=O)[C@H](Cc1c[nH]c2ccccc12)NC(=O)[C@@H]1CCCN1C(=O)[C@H](CCCCN)NC(=O)[C@H](CC(C)C)NC(=O)[C@H](CCCCN)NC(=O)[C@H](CC(C)C)NC(=O)[C@@H](N)CCCCN)C(=O)N[C@@H](CCCCN)C(N)=O` (H-KLKLKPWWWPKLKLK-NH2), the MIC [1] was 8 µM (≈ 15.9 µg/mL), the MIC [2] was 8 µM (≈ 15.9 µg/mL) and the MIC [3] was 8 µM (≈ 15.9 µg/mL). For the same compound, the MIC [4] was 8 µM (≈ 15.9 µg/mL), the MIC [5] was 4 µM (≈ 7.97 µg/mL) and the MIC [6] was 4 µM (≈ 7.97 µg/mL). It also gave an MIC [7] of 4 µM (≈ 7.97 µg/mL), an MIC [8] of 8 µM (≈ 15.9 µg/mL) and an HC10 [9] greater than 256 µM. The Activity [41] was “Toxic”, the Activity [42] was “Toxic” and the Activity [43] was “Toxic”. The “fold change (FC)” value [44] was 2, the “fold change (FC)” value [45] was 2 and the “fold change (FC)” value [10] was 2. For the same compound, the “fold change (FC)” value [46] was 2, the “fold change (FC)” value [47] was 2 and the “fold change (FC)” value [48] was 2. The half-life [14] was 35.4 h, the Activity [15] was “inactive” and the Activity [16] was “inactive”. For the same compound, the Activity [17] was “inactive” and the Activity [18] was “inactive”.
